From patent publication US20070098735A1, “Methods for the Elimination of Pathogens and Other Particulate Agents” (priority 2005, published 2007)

Experiments:
[1] = test system: CD4+ T cells purified from spleens of DO 11.10 mice (IFN-γ); experiment: IFN-γ release by CD4+ T cells (ELISA); type: cell-based; conditions: compared to ova-coated yeast alone or HSP70 given alone
Experimental: (§1) Proliferation of CD4+ T cells and INF-γ (interferon gamma) release. Unlabeled S. cerevisiae (80 μg) was incubated with excess chicken ovary albumin (OVA) at 37° C. for 1 hour and washed repeatedly to eliminate free OVA protein. S. cerevisiae-OVA complexes (OVA-coated yeast) were administered to macrophages treated with or without HSP70. Macrophages were then washed and irradiated at 12,000 rads and assessed for viability by trypan blue exclusion. Subsequently, they were co-cultured with CD4+ T lymphocytes that were purified from spleens of DO 11.10 mice and labeled with carboxyfluoroscein succinimidyl ester (CSFE). […] Following the 48-hour incubation, proliferation of CD4+ cells was determined with FACS and IFN-γ release in the supernatant was tested by enzyme-linked immunosorbent assay (ELISA; Pierce, Ill.).
(§2) Alexafluor labeled S. cerevisiae were coated with whole ovalbumin (OVA) protein 1 mg/ml by co-incubation at 37° C. for 20 minutes and washed until free OVA protein was removed (washes were tested by gel electrophoresis using SDS-PAGE and immunoblotting). […] Resultant proliferation of the CSFE-labeled CD4+ was measured by FACS as an indirect measure of the amount of OVA protein processed and its peptide epitope presented in context of MHC-II. […]

[2] = test system: CD4+ T cells purified from spleens of DO 11.10 mice; experiment: Proliferation of CD4+ T cells after MHC-II presentation of OVA-coated yeast by macrophages (FACS); type: cell-based; conditions: macrophages treated with HSP70 100 μg/ml and OVA-coated yeast
Experimental: as §1, §2

[3] = test system: Murine macrophage lines (RAW264.7, J774.A1 or RAW264NO-); experiment: Phagocytosis assay in vitro (uptake of Alexa Fluor 488-labeled particles); type: cell-based
In short: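 Macrophages in serum-free EMEM took up Alexa Fluor 488 beads, yeast or E. coli (40 particles/cell) for 60 min at 37 °C with or without HSPs, LPS or control proteins. Trypan blue (0.8 mg/ml, 60 s) quenched external fluorescence, and intracellular signal was read as relative mean fluorescence intensity. Data are from 3 experiments, 3 wells/group, compared with medium alone by Student's t test.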

HSP70: heat shock protein purified from murine livers, prepared as a complex with endogenous peptide
IFN-γ production by CD4+ cells [1]: increase in their ability to produce IFN-γ
CD4+ proliferation [2]: 20%
cytotoxicity of HSP-treatment (trypan blue exclusion) (macrophages): not cytotoxic
rank as stimulator of phagocytosis among the agents tested ([3]; HSP70 100 μg/ml vs TLR7-ligands 1 mg/ml): most potent stimulator of phagocytosis
uptake of microbial or non-microbial materials as compared to control proteins or buffer ([3]; HSPs 100 μg/ml, P<0.01 vs medium alone): increase in uptake
increase in phagocytosis ([3]; RAW264.7, labeled S. cerevisiae, HSP70 100 μg/ml, 60 minutes at 37° C.): 4-6 times the basal rate
uptake of yeast by macrophages pre-treated with HSP and washed ([3]; compared with HSP and yeast administered simultaneously): enhanced the uptake of yeast to the same extent
doses unable to stimulate uptake ([3]; dose range 10-100 μg/ml): less than 20 μg/ml
quantity of phagocytosis at higher doses ([3]; doses up to 200 μg/ml): did not result in any further increase in the quantity of phagocytosis
dose at which the peak effect occurred ([3]; plateau through 100 μg/ml): 40 µg/mL
ability to enhance phagocytosis ([3]; serum-free conditions, 1 hour, HSP70 100 μg/ml, LPS 25 ng-1 μg/ml, heating 100° C. for 20 minutes): able to enhance phagocytosis equally whether in the presence or absence of serum
time for antigen uptake to reach a plateau ([3]; time-titration 10-90 minutes): ≤ 45 min
